We go through nine compounds from ChEMBL document CHEMBL3853300, “Synthesis of α-santonin derived acetyl santonous acid triazole derivatives and their bioevaluation for T and B-cell proliferation” (Eur J Med Chem, 2016).

One data set relates to B. The data set can be described thus: Immunosuppressive activity in Balb/c mouse B cells assessed as inhibition of LPS-induced cell proliferation after 48 hrs by MTT assay relative to control. The data set is classed as functional, cell-based. A general note: Formazan colour is commonly taken as a measure of viable cells.
A short description of data set [1]: Immunosuppressive activity in Balb/c mouse B cells assessed as inhibition of LPS-induced cell proliferation at 100 uM after 48 hrs by MTT assay relative to control. The data set is classed as functional.
The test system of another data set is T-cell. The experiment in a line: Immunosuppressive activity in Balb/c mouse T cells assessed as inhibition of ConA-induced cell proliferation after 48 hrs by MTT assay relative to control. It is filed as functional, cell-based.
For data set [2], the species on record is Mus musculus. The data set can be described thus: Cytotoxicity against Balb/c mouse B cells assessed as decrease in cell viability at 1 uM after 48 hrs by MTT assay. It is filed as toxicity, cell-based.
For data set [3], the species on record is Mus musculus. The experiment in a line: Cytotoxicity against Balb/c mouse B cells assessed as decrease in cell viability at 100 uM after 48 hrs by MTT assay. The data set is classed as toxicity, cell-based.
Data set [4] in a line: Immunosuppressive activity in Balb/c mouse B cells assessed as inhibition of LPS-induced cell proliferation at 1 uM after 48 hrs by MTT assay relative to control. The data set is classed as functional.
A short description of data set [5]: Immunosuppressive activity in Balb/c mouse T cells assessed as inhibition of ConA-induced cell proliferation at 100 uM after 48 hrs by MTT assay relative to control. The data set is classed as functional.
For data set [6], the species on record is Mus musculus. The data set can be described thus: Cytotoxicity against Balb/c mouse B cells assessed as decrease in cell viability at 10 uM after 48 hrs by MTT assay. It is filed as toxicity, cell-based.
The species entered for data set [7] is Mus musculus. The experiment in a line: Cytotoxicity against Balb/c mouse T cells assessed as decrease in cell viability at 1 uM after 48 hrs by MTT assay. It is filed as toxicity, cell-based.
Data set [8] in a line: Immunosuppressive activity in Balb/c mouse B cells assessed as inhibition of LPS-induced cell proliferation at 10 uM after 48 hrs by MTT assay relative to control. It is filed as functional.
Data set [9] is filed under the species Mus musculus. The experiment in a line: Cytotoxicity against Balb/c mouse T cells assessed as decrease in cell viability at 100 uM after 48 hrs by MTT assay. It is filed as toxicity, cell-based.
Data set [10] can be described thus: Immunosuppressive activity in Balb/c mouse T cells assessed as inhibition of ConA-induced cell proliferation at 10 uM after 48 hrs by MTT assay relative to control. It is filed as functional.
Data set [11] is filed under the species Mus musculus. The experiment in a line: Cytotoxicity against Balb/c mouse T cells assessed as decrease in cell viability at 10 uM after 48 hrs by MTT assay. The data set is classed as toxicity, cell-based.
Data set [12] in a line: Immunosuppressive activity in Balb/c mouse T cells assessed as inhibition of ConA-induced cell proliferation at 1 uM after 48 hrs by MTT assay relative to control. The data set is classed as functional.

SMILES strings stand for the structures.

As a reminder, the inhibition is the relative decrease from the control value, in per cent. Consider `CC(=O)Oc1cc(C)c2c(c1C)C[C@H]([C@@H](C)C(=O)OCc1cn(-c3cc(I)ccc3C)nn1)CC2`, for which the inhibition entry with B and with T-cell was “Dose-dependent effect” in each case. Also, the inhibition at 100 µM in [1] was 28%; in data set [5], 26.5%. For the same compound, the Activity result in the data set listed under Mus musculus [2] is “Non-Toxic”; in the data set filed under Mus musculus [3], “Toxic”; in the data set filed under Mus musculus [6] it was “Toxic”; in the data set listed under Mus musculus [7], “Non-Toxic”; in the data set filed under Mus musculus [9] it was “Toxic”; in the data set listed under Mus musculus [11], “Toxic”. In addition, the inhibition at 1 µM in data set [4] was 39%; in [12], 34.5%. In addition, the inhibition at 10 µM in [8] was 34.6%; in data set [10], 38.2%.
Regarding `CC(=O)Oc1cc(C)c2c(c1C)C[C@H]([C@@H](C)C(=O)OCc1cn(-c3ccc(O)cc3)nn1)CC2`, the inhibition entry with B and in the data set with T-cell was “Dose-dependent effect” in each case. Moreover, the inhibition at 100 µM in [1] was determined as 29.7%; in [5], 17.6%. The Activity result is on record as “Non-Toxic” in the data set listed under Mus musculus [2]; “Toxic” in the data set listed under Mus musculus [3]; “Toxic” in the data set filed under Mus musculus [6]; “Non-Toxic” in the data set filed under Mus musculus [7]; “Toxic” in the data set filed under Mus musculus [9]; “Toxic” in the data set listed under Mus musculus [11]. In addition, the inhibition at 1 µM in data set [4] stood at 36.6%; in data set [12] it was 33.3%. Also, the inhibition at 10 µM in data set [8] worked out at 26.3%; in data set [10] it was 5.55%.
With `COc1ccccc1-n1cc(COC(=O)[C@H](C)[C@@H]2CCc3c(C)cc(OC(C)=O)c(C)c3C2)nn1`, the inhibition entry in the data set on B and in the data set on T-cell was “Dose-dependent effect” throughout. The figures for the inhibition at 100 µM in [1] and in data set [5] were 6.59% and 29.4%, respectively. For the same compound, the Activity result in the data set listed under Mus musculus [2] was “Toxic”; in the data set listed under Mus musculus [3], “Non-Toxic”; in the data set listed under Mus musculus [6], “Non-Toxic”; in the data set listed under Mus musculus [7], “Toxic”; in the data set filed under Mus musculus [9] it was “Non-Toxic”; in the data set listed under Mus musculus [11], “Non-Toxic”. Moreover, the inhibition at 1 µM worked out at 27.5% in data set [4] and 8.08% in data set [12]. Besides, the inhibition at 10 µM amounted to 32.4% in data set [8] and 33.1% in data set [10].
As for `CC(=O)Oc1cc(C)c2c(c1C)C[C@H]([C@@H](C)C(=O)OCc1cn(Cc3ccccc3)nn1)CC2`, the inhibition entry in the data set with B and in the data set with T-cell was “Dose-dependent effect” throughout. Also, the values for the inhibition at 100 µM in data set [1] and in data set [5] were 32.3% and 44%, respectively. For the same compound, the Activity entry is given as “Non-Toxic” in the data set filed under Mus musculus [2]; “Toxic” in the data set filed under Mus musculus [3]; “Non-Toxic” in the data set filed under Mus musculus [6]; “Non-Toxic” in the data set filed under Mus musculus [7]; “Toxic” in the data set filed under Mus musculus [9]; “Non-Toxic” in the data set listed under Mus musculus [11]. In addition, the inhibition at 1 µM turned out to be 48.6% in data set [4] and 33% in data set [12]. In addition, the inhibition at 10 µM in [8] was 33.5%; in [10] it was 39.2%.
For `CC(=O)Oc1cc(C)c2c(c1C)C[C@H]([C@@H](C)C(=O)OCc1cn(-c3ccccc3CO)nn1)CC2`, the inhibition entry in the data set with B and with T-cell was “Dose-dependent effect” in each case. Further, the inhibition at 100 µM was 53.4% in data set [1] and 81.1% in data set [5]. The Activity result in the data set listed under Mus musculus [2], in the data set listed under Mus musculus [3], in the data set filed under Mus musculus [6], in the data set filed under Mus musculus [7], in the data set filed under Mus musculus [9] and in the data set filed under Mus musculus [11] was “Toxic” throughout. Also, the inhibition at 1 µM was 60.3% in data set [4] and 17.4% in [12]. Moreover, the inhibition at 10 µM in data set [8] was 64.1%; in data set [10] it was 32.6%.
For the compound `CC(=O)Oc1cc(C)c2c(c1C)C[C@H]([C@@H](C)C(=O)OCc1cn(-c3ccc(C#N)cc3)nn1)CC2`, the inhibition result with B and in the data set on T-cell was “Dose-dependent effect” in each case. In addition, the inhibition at 100 µM in [1] came out at 67.9%; in data set [5], 59.8%. In addition, the Activity result in the data set filed under Mus musculus [2], in the data set filed under Mus musculus [3], in the data set listed under Mus musculus [6], in the data set filed under Mus musculus [7], in the data set listed under Mus musculus [9] and in the data set filed under Mus musculus [11] was “Toxic” in each case. The inhibition at 1 µM in [4] was 76.3%; in [12], 35.6%. Besides, the results for the inhibition at 10 µM in data set [8] and in data set [10] were 80.9% and 52.3%, respectively.
Consider `CC(=O)Oc1cc(C)c2c(c1C)C[C@H]([C@@H](C)C(=O)OCc1cn(-c3ccc(C(=O)c4ccccc4)cc3)nn1)CC2`, for which the inhibition entry in the data set with B and with T-cell was “Dose-dependent effect” in each case. Also, the inhibition at 100 µM came out at 81.2% in data set [1] and 20% in [5]. Also, the Activity entry in the data set filed under Mus musculus [2] is “Non-Toxic”; in the data set listed under Mus musculus [3], “Toxic”; in the data set listed under Mus musculus [6], “Toxic”; in the data set listed under Mus musculus [7], “Non-Toxic”; in the data set listed under Mus musculus [9] it was “Toxic”; in the data set listed under Mus musculus [11], “Toxic”. Also, the inhibition at 1 µM is 69.3% in data set [4] and 5.33% in data set [12]. Also, the inhibition at 10 µM in [8] worked out at 75%; in [10], 28%.
Take `CC(=O)Oc1cc(C)c2c(c1C)C[C@H]([C@@H](C)C(=O)OCc1cn(-c3ccc(NC(=O)c4ccccc4)cc3)nn1)CC2`: the inhibition entry with B and with T-cell was “Dose-dependent effect” in each case. Moreover, the inhibition at 100 µM in data set [1] worked out at 19.2%; in data set [5], 38.2%. The Activity result in the data set filed under Mus musculus [2] is recorded as “Non-Toxic”; in the data set filed under Mus musculus [3], “Non-Toxic”; in the data set listed under Mus musculus [6] it was “Toxic”; in the data set filed under Mus musculus [7], “Non-Toxic”; in the data set listed under Mus musculus [9], “Non-Toxic”; in the data set listed under Mus musculus [11], “Toxic”. The inhibition at 1 µM in data set [4] amounted to 36.8%; in data set [12] it was 7.35%. Also, the inhibition at 10 µM was 35.2% in data set [8] and 30.9% in [10].
On to `CC(=O)Oc1cc(C)c2c(c1C)C[C@H]([C@@H](C)C(=O)OCc1cn(-c3ccc(CC#N)cc3)nn1)CC2`, for which the inhibition result in the data set on B and with T-cell was “Dose-dependent effect” throughout. The inhibition at 100 µM in data set [1] stood at 65.6%; in [5] it was 68.9%. Moreover, the Activity result in the data set filed under Mus musculus [2], in the data set listed under Mus musculus [3], in the data set filed under Mus musculus [6], in the data set listed under Mus musculus [7], in the data set filed under Mus musculus [9] and in the data set filed under Mus musculus [11] was “Toxic” in each case. The figures for the inhibition at 1 µM in data set [4] and in data set [12] were 59.5% and 21.2%, respectively. The inhibition at 10 µM in data set [8] was 58.8%; in data set [10], 47%.
